In PubChem BioAssay AID1645864 (Buhrlage Lab, Dana-Farber Cancer Institute and Novartis …, 2021) one finds IC50 data, which are given here for 88 compounds.

Activity calls are given as the source filed them.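 How the source made its calls: active means maximal inhibition of USP17 at or above 30% in the confirmation dose-response, a value not among the printed readouts; inactive means the rest.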

What is called IC50 is the concentration that inhibits the measured activity by half.

The target of the experiment is Ubiquitin carboxyl-terminal hydrolase 17-like protein 5 (Homo sapiens) (UniProt A8MUK1). As to the kind of experiment: ubiquitin-specific protease 17 inhibitors, concentration series, biochemical, verification of primary actives (AID 1645864). Particulars: purified USP17, ubiquitin-rhodamine cleavage fluorescence, 3 h.
Ubiquitin carboxyl-terminal hydrolase 17-like protein 5 (Homo sapiens), sequence (A8MUK1 whole entry, looked up): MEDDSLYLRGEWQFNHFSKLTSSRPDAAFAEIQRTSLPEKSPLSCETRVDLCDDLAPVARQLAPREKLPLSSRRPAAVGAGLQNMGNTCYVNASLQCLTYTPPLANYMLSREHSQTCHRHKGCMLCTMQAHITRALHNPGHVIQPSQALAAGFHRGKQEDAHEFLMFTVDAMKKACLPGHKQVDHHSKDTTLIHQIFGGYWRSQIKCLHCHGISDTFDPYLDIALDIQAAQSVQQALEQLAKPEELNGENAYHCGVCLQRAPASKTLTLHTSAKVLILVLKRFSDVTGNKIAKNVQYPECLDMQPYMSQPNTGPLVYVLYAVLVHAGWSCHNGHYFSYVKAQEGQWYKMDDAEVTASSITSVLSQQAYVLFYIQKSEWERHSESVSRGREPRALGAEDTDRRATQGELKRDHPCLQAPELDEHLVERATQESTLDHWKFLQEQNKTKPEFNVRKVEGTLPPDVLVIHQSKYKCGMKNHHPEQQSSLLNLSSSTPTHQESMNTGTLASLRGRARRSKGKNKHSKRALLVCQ
For `NS(=O)(=O)c1ccc(NC(=O)Cn2cnc3cc([N+](=O)[O-])ccc3c2=O)cc1`, the IC50 is 18 µM. In the case of `O=C(NCc1ccncc1)C1CCN(c2cncnc2N2CCCCC2)CC1`, the IC50 was > 50 µM (inactive).

As to `CCC(=O)OCc1cnc(C)c2oc(=O)c(-c3nc(-c4ccccc4)no3)cc12`, the IC50 was > 50 µM (inactive). In the case of `COc1ccc(OC)c(-n2c(SCC(=O)N3CCc4ccccc43)nnc2-c2cccc(S(=O)(=O)N(C)C)c2)c1` it was 3.51 µM. In the case of `CCC1OC(O)(C(C)C(O)C(C)C2OC(=O)/C(C)=C/C(C)=CC(C)C(O)C(C)C/C(C)=C/C=C/C2OC)CC(OC(=O)/C=C/C(=O)NC2=C(O)CCC2=O)C1C` (stereo not drawn) it was > 50 µM (inactive). Under `COc1ccc(-n2ccc(=O)c(-c3nc(-c4ccccc4F)no3)n2)cc1OC` stands > 50 µM (inactive). `COc1cccc(NC(=O)C2C3C=CC4(O3)C2C(=O)N(CCc2ccccc2Cl)C4C(=O)NC2CCCCC2)c1` (stereo not drawn): the IC50 is 28.2 µM.

As to `CCC(C)NC(=O)Cn1c(=O)n(-c2ccccc2)c(=O)c2ccc(C(=O)NCc3ccco3)cc21` (stereo not drawn), the IC50 is 45 µM. With `O=C(CSc1ncnc2c1oc1ccccc12)NC1CCCC1`, the IC50 was 26 µM. Under `Cc1cc(C)nc(-n2nc(C)c3c2NC(=O)CSC3c2ccccc2F)n1` (stereo not drawn) stands 43 µM; under `COC(=O)CC1CC23OC2(C(=O)c2c(O)cccc2C3=O)C(C)O1` (stereo not drawn), 0.161 µM; under `COc1cc2c(cc1NC(=O)c1ccc(-n3cnnn3)cc1)oc1ccccc12`, 0.691 µM. In the case of `Cc1ccccc1C(=O)OCCN1C(=O)c2cccc3c(N4CCOCC4)ccc(c23)C1=O` it was > 50 µM (inactive). As to `Cc1csc2ncc(C(=O)N3CCN(c4ccccc4F)CC3)c(=O)n12`, the IC50 is > 50 µM (inactive). In the case of `O=C1C/C(=C\c2cccc(Cl)c2)Cc2ccccc21` it was > 50 µM (inactive); in that of `Cc1cc(C(=O)Nc2ccc3nc(N4CCN(c5ncccn5)CC4)cc(C)c3c2)ccc1[N+](=O)[O-]`, 1.68 µM; in that of `COc1ccc(C2CC(=O)Nc3n[nH]c(-c4ccccc4)c32)cc1OC` (stereo not drawn), 29.7 µM. Under `Cc1ccc(-c2ncc(C(=O)NCc3cccc(C)c3)c(-c3ccncc3)n2)cc1` stands > 50 µM (inactive); under `Fc1cnc(N2CC[C@H]3CO[C@H](CNc4ncccn4)[C@H]3C2)nc1`, > 50 µM (inactive); under `O=C(NC(Cc1ccccc1)c1nc2ccccc2[nH]1)C1CC1` (stereo not drawn), 49.7 µM. Consider `CCS(=O)(=O)c1ccccc1C(=O)Nc1ccc2sc(C)nc2c1`, for which the IC50 is > 50 µM (inactive).

For `CC(C(=O)NCc1ccc2c(c1)OCO2)N1CCN(c2ccc(O)cc2)CC1` (stereo not drawn), the IC50 is 30.1 µM. In the case of `Cc1c(C(=O)Nc2cccc(C(F)(F)F)c2)cnn1-c1ccccn1` it was 34.4 µM; in that of `COc1cc2c(c(OCC(=O)Nc3ccc4c(c3)OCCO4)c1)C(=O)O[C@@H](C)CCCC(=O)CCCCC2`, 23.1 µM. Under `Cc1ccc(-c2noc(-c3nnc(SCC(=O)NC4CCCC4)n3C)n2)cc1` stands 2.34 µM; under `COc1ccc(Cn2c(SCc3ccc(C(=O)NCCc4ccccc4)cc3)nc3ccncc32)cc1`, > 50 µM (inactive). In the case of `Cc1ccc(S(=O)(=O)Nc2ccccc2SCCS(=O)(=O)c2ccc(Cl)cc2)cc1` it was > 50 µM (inactive); in that of `Cc1ccc(Cl)cc1NC(=O)c1cc(-c2ccccn2)n[nH]1`, 7.13 µM; in that of `COc1ccc2c(c1)CCc1c(C(=O)NCc3cccnc3)noc1-2`, 25.2 µM. For `COC(=O)C1C(c2ccc(OC)cc2)C2(C(=O)c3ccccc3C2=O)C2C=Cc3ccccc3N12` (stereo not drawn), the IC50 was > 50 µM (inactive). Under `O=C(NCc1ccccc1)Nc1cccc2ccccc12` stands 34 µM; under `O=C(c1ccc2ncccc2c1)N1CCC2(C1)Nc1cccnc1NC2=NC1CCCC1` (stereo not drawn), > 50 µM (inactive).

Take `CC(=O)CN1CC2(CCN(Cc3ccc(F)cc3)CC2)COc2ccccc2S1(=O)=O`: the IC50 was > 50 µM (inactive). With `Cc1ccc(-c2nc(NC(=O)COc3ccc(Cl)cc3)no2)cc1`, the IC50 was 1.33 µM. In the case of `Cc1nn(-c2ccccc2)c(C)c1C(=O)OCC(=O)Nc1cccc(C#N)c1` it was > 50 µM (inactive); in that of `O=C(CSc1nc2cc(S(=O)(=O)Nc3ccccc3Cl)ccc2o1)Nc1ccc(N2CCOCC2)cc1`, 48 µM. In the case of `COCCNC(=O)c1ccnn1-c1ccc2ccc(-c3cccnc3)cn12` it was > 50 µM (inactive); in that of `COc1c2c(cc3cc(O)c4c(=O)cc(C)oc4c13)CCC2=O`, 34.3 µM; in that of `COc1ccc(Cl)cc1-n1nnc(C(=O)N2CCc3ccccc3C2)c1C`, > 50 µM (inactive). Under `Fc1ccc(Cc2nc(-c3ccc4nncn4c3)no2)cc1` stands > 50 µM (inactive). As to `Cc1nc(-c2ccc3c(c2)nnn3CCN2CCOCC2)no1`, the IC50 is > 50 µM (inactive). In the case of `CN(C)c1ccc(/C=N/NC(=O)c2ccc(Cl)cc2)cc1` it was 6.27 µM; in that of `O=C1Nc2ccccc2C(=O)C1C(c1ccc(Cl)cc1)C1C(=O)Nc2ccccc2C1=O` (stereo not drawn), 35.6 µM; in that of `NC(=O)c1ccc(NC(=O)Cc2cc(-c3ccc(Cl)cc3)on2)cc1`, > 50 µM (inactive). In the case of `Cc1ccn(-c2ccc(NC(=O)c3ccccc3Sc3ccccc3C#N)cc2)n1`, the IC50 is 44.7 µM. Under `COc1ccc(N2C(=O)[C@@H]3[C@H]4c5ccccc5C=CN4C(C(=O)Nc4ccc5c(c4)OCO5)[C@@H]3C2=O)cc1` (stereo partly drawn) stands > 50 µM (inactive); under `COc1ccc(-c2nc(Cn3nnc(C(=O)Nc4ccc(C)c(C)c4)c3N)c(C)o2)cc1`, 2.24 µM. In the case of `O=c1cc(CNc2ccc(Br)cc2)nc2nc(-c3ccccc3)[nH]n12` it was > 50 µM (inactive); in that of `COc1ccc(-c2nnc(SCc3ccccc3C#N)o2)c(OC)c1`, > 50 µM (inactive). Under `O=C(COc1ccc(Cl)cc1Cl)Nc1ccccc1-c1nc2ccccc2[nH]1` stands 2.12 µM.

With `O=S1(=O)CCN(Cc2cccnc2)c2c(F)nc(N3CCOCC3)c(F)c21`, the IC50 was > 50 µM (inactive). Under `Cc1cc(=O)c2c(O)oc(O)c3c(O)cc(=O)c1c32` stands 24.4 µM. In the case of `Cc1ccc(NC(=O)Cn2c(-n3nc(C)cc3C)nc3c(c2=O)CCCC3)c(C)c1` it was 32.6 µM; in that of `Cc1cc(C(F)(F)F)n2nc(C3CCN(C(=O)c4cnn(C)c4C)C3)cc2n1` (stereo not drawn), 30.2 µM; in that of `Cc1ccc2c(C)nc(Nc3ncc4c(n3)CC(c3ccco3)CC4=O)nc2c1` (stereo not drawn), under 0.05 µM. Consider `CCC1(C)Cc2c(sc3nc(SCC(=O)Nc4ccc(C(C)=O)cc4)nc(N)c23)CO1` (stereo not drawn), for which the concentration for half-maximal inhibition (IC50) was 34.9 µM.

As for `COc1ccc(/C=C/C(=O)Nc2cccc(S(=O)(=O)Nc3ccccc3Cl)c2)c(OC)c1`, the IC50 was 9.3 µM.

`COc1ccc(NC(=O)C2CC(=O)Nc3cc(-c4ccccc4)nn32)cc1` (stereo not drawn): the IC50 was 22.9 µM. In the case of `Cc1nc(-c2cccc(NC(=O)c3ccccc3Cl)c2)no1`, the IC50 is > 50 µM (inactive). In the case of `COc1ccccc1Nc1ncc(C(=O)NCCc2ccc(Cl)cc2)c2ccccc12` it was 4.16 µM.

`Cc1cccc(C(=O)N2CCN3Cc4ccccc4N(C)CC3C2)c1` (stereo not drawn): the IC50 is > 50 µM (inactive).

In the case of `CN(C)c1ccc(CCN2CCc3nc4cccnc4cc3C2)cc1`, the IC50 is > 50 µM (inactive).

Regarding `COc1cccc(CNC(=O)C2=Cc3cccc(OC)c3OC2)c1`, the IC50 was > 50 µM (inactive). In the case of `CCN(CC)C(=O)CN1CCCC(c2ncncc2-c2cc(C)no2)C1` (stereo not drawn) it was > 50 µM (inactive); in that of `Cc1cccc(NC(=O)CSc2nnc(-c3n[nH]c4c3CCC4)n2N)c1`, 35.1 µM; in that of `Cc1ccc2[nH]cc(S(=O)(=O)c3ccc(C)c(F)c3)c(=O)c2c1`, 42.8 µM. Under `O=C(NCc1cccnc1)c1cnn2c(C(F)(F)F)cc(-c3ccc(F)cc3)nc12` stands 27.7 µM; under `Cc1cc(C(=O)Nc2ccc3c(c2)OCCO3)no1`, > 50 µM (inactive); under `CCc1nc(SCC(=O)Nc2ccccc2Cl)c2oc3ccccc3c2n1`, 0.0527 µM. `Cc1nn(-c2ccccc2)c(C)c1C(=O)OCC(=O)Nc1cccc(Br)c1`: the IC50 was 40.6 µM. Under `Cc1ccc(-n2nnc(C(=O)NC3CCCCC3)c2N)cc1` stands 22.1 µM; under `CCOC(=O)c1cnc(C(F)(F)F)nc1Sc1n[nH]c(-c2cccs2)n1`, > 50 µM (inactive). In the case of `Fc1ccc(-c2noc(-c3nnc(NCc4cccnc4)c4ccccc34)n2)cc1` it was 2.59 µM; in that of `Fc1cc(F)c2[nH]cc(-c3nnnn3-c3ccc4ccccc4c3)c2c1`, 6.56 µM; in that of `O=C(COC(=O)c1ccc2ncsc2c1)Nc1ccccc1F`, > 50 µM (inactive). In the case of `CC(C)c1cc(NCc2ccccc2)n2nc(-c3cccnc3)nc2n1` it was 18.9 µM; in that of `Cc1cc(C)c(NC(=O)CSc2nc3nccnc3c(=O)n2Cc2ccccc2Cl)c(C)c1`, 4.02 µM; in that of `Cc1c(Cl)cccc1NC(=O)Cn1ccc2ccccc2c1=O`, 2.23 µM.

For `C=C[C@]1(C)C=C2C(=O)[C@]3(O)OC(=O)[C@@]4(CCCC(C)(C)[C@H]34)[C@@]2(O)CC1`, the concentration for half-maximal inhibition (IC50) is 29.7 µM. In the case of `COc1ccc(C(=O)NCC(c2ccc3c(c2)CCCN3C)N2CCCC2)cc1` (stereo not drawn) it was > 50 µM (inactive). Under `Cc1cc(C)c2c(-n3cccc3)c(C(=O)NCCc3ccc(S(N)(=O)=O)cc3)sc2n1` stands > 50 µM (inactive). `O=C(COc1ccc2c(-c3ccccc3)cc(=O)oc2c1)Nc1cccnc1`: the IC50 is 1.7 µM.

With `NS(=O)(=O)c1ccc(Cl)c(C(=O)OCc2csc(Nc3ccccc3)n2)c1`, the IC50 is > 50 µM (inactive). Regarding `CC(=O)Nc1cc2cc(-n3cccc3)ccc2oc1=O`, the IC50 was 3.83 µM. Regarding `O=C(NCc1cccnc1)C1CCN(c2cnc(N3CCCCCC3)nc2)CC1`, the IC50 was > 50 µM (inactive).

For `Cc1ccc(C2c3cccn3CCN2C(=O)Nc2ccccc2)cc1` (stereo not drawn), the IC50 was > 50 µM (inactive). Consider `O=C(C1CCCN(S(=O)(=O)N2CCCCCC2)C1)N1CCN(c2ccccc2)CC1` (stereo not drawn), for which the IC50 is > 50 µM (inactive). Consider `NC(=O)c1nnn(-c2ccc(NC(=O)c3ccc(F)c(F)c3)cc2)n1`, for which the half-maximal inhibitory concentration (IC50) is 10.6 µM.
